From patent publication US20210255193A1, “LYSINE REACTIVE PROBES AND USES THEREOF” (The Scripps Research Institute, priority 2017, published 2021)

Columns and labels:
Assay in all cases: competitive isoTOP-ABPP
Format in all cases: binding
[1] = biological target: T1, CPOX Coproporphyrinogen-III oxidase, mitochondrial (Homo sapiens, UniProt P36551); conditions: for isoTOP-ABPP ratio (R) at liganded lysine P36551_K404: 50 uM, in vitro, sol, 231; for isoTOP-ABPP ratio, lysine P36551_K404: 50 uM_231_sol_in vitro
T1 construct: isoTOP-ABPP experiments performed in cell lysates (in vitro); endogenous in cells; host or cells: soluble proteome of human cancer cell lines (MDA-MB-231; Ramos and Jurkat also prepared)
T1 sequence (P36551 111-454): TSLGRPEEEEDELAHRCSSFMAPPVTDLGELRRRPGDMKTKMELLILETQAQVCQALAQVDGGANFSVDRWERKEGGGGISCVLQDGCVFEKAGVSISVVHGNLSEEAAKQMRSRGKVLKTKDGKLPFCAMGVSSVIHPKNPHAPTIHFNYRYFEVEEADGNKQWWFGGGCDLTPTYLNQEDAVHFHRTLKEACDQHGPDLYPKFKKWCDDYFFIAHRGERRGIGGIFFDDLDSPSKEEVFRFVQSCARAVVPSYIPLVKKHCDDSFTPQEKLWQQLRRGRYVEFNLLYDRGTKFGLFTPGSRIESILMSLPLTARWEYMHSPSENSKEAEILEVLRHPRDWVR
Experimental: (§1) In vitro covalent fragment treatment for isoTOP-ABPP. All compounds were made up as solutions in DMSO (100×) and were used at a final concentration of 50 μM for activated esters and 100 μM for guanidinylating agents. For each profiling sample, 0.5 ml of lysate was treated with 5 μl of the 100× compound stock solution or 5 μl of DMSO. Samples were treated with activated esters for
(§2) STP-alkyne labeling and click chemistry. For concentration-dependent reactivity measurements by isoTOP-ABPP, 0.5 ml proteome aliquots were treated at ambient temperature with 1 mM STP-alkyne 1 (5 μl of 100 mM stock in DMSO) and 0.1 mM STP alkyne 1 (5 μl of 10 mM stock in DMSO), respectively. For competitive isoTOP-ABPP, after in vitro fragment treatment (detailed above), the samples were labeled for 1 h at ambient temperature with 0.1 mM STP-alkyne 1 (5 μl of 10 mM stock in DMSO). Samples were conjugated by copper-mediated azide-alkyne cycloaddition (CuAAC) to either the light (1 mM STP-alkyne or fragment treated) or heavy (0.1 mM STP-alkyne or DMSO treated) TEV tags (10 μl of 5 mM stocks in DMSO, final concentration=100 μM) using tris(2-carboxyethyl)phosphine hydrochloride
(§3) R value calculation and processing. The ratios of light and heavy MS1 peaks for each unique peptide were quantified with a CIMAGE software using default parameters (3 MS1 acquisitions per peak and signal to noise threshold set to 2.5). For reactivity measurements by isoTOP-ABPP, the R value was calculated from the ratio of MS1 peak areas, comparing the 1 mM STP alkyne sample (light TEV tag) with the 0.1 mM STP alkyne sample (heavy TEV tag). For competitive isoTOP-ABPP, the R value was calculated from the ratio of MS1 peak areas, comparing the DMSO treated sample (heavy TEV tag) with the compound treated sample (light TEV tag). […] Ratios for unique peptide entries are calculated for each experiment; overlapping peptides with the same modified lysine (for example, different charge states, MudPIT chromatographic steps or tryptic termini) are grouped together and the median ratio is reported as the final ratio (R). The peptide ratios reported by CIMAGE were further filtered to ensure the removal or correction of low-quality ratios in each individual data set. The quality filters applied were the following: removal of half tryptic peptides; for ratios with high standard deviations from the median (90% of the median or above) the lowest ratio was taken instead of the median; removal of peptides with R=20 and only a single MS2 event triggered during the elution of the parent ion; manual annotation of all the peptides with ratios of 20, removing any peptides with low quality elution profiles that remained after the previous curation steps (only done for competitive isoTOP-ABPP).
(§4) Cross-data processing for fragment screening. For compound treated samples, biological replicates of the same condition were averaged, if the standard deviation was below 60% of the mean; otherwise, for lysines with at least one R value <4 for a particular compound, the lowest value of the ratio set was taken. For lysines, where all R values for a particular compound were ≥4, the average was reported. For peptides containing several possible modified lysines, the lysine with the highest number of quantification events was used for analysis and the remaining, redundant peptides were reported as alternative modification sites. Peptides included in the aggregate dataset (those used for further bioinformatics and statistical analyses) were required to have been quantified in 2 experiments for competitive isoTOP-ABPP. Lysines were categorized as liganded, if they had at least one ratio R≥4 (hit fragments). For liganded lysines with R=20 for all liganding events, lysines were required to have been quantified with R=20 in two separate experiments and were further required to have been quantified with R<20 in one additional experiment.

FAM136A Protein FAM136A = biological target: T2, FAM136A Protein FAM136A (Homo sapiens, UniProt Q96C01); conditions: for isoTOP-ABPP ratio (R) at liganded lysine Q96C01_K99: 50 uM, in vitro, sol, 231; for isoTOP-ABPP ratio, lysine Q96C01_K99: 50 uM_231_sol_in vitro
T2 construct: isoTOP-ABPP experiments performed in cell lysates (in vitro); endogenous in cells; host or cells: soluble proteome of human cancer cell lines (MDA-MB-231; Ramos and Jurkat also prepared)
T2 sequence (Q96C01 whole entry): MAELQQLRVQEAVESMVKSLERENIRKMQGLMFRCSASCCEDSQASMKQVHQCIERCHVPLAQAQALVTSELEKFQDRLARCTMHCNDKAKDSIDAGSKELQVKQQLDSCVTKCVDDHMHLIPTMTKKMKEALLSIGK
In short: (§5)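 Cell lysate (0.5 ml) was pre-treated with fragment, 50 μM for activated esters or 100 μM for guanidinylating agents, versus DMSO, then labeled 1 h at ambient temperature with 0.1 mM STP-alkyne. Light/heavy TEV tags attached by CuAAC; R = DMSO/compound MS1 peak-area ratio, median per lysine.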

TTR Transthyretin = biological target: T3, TTR Transthyretin (Homo sapiens, UniProt P02766); conditions: for isoTOP-ABPP ratio (R) at liganded lysine P02766_K35: 50 uM, in vitro, sol, 231; for isoTOP-ABPP ratio, lysine P02766_K35: 50 uM_231_sol_in vitro
T3 construct: isoTOP-ABPP experiments performed in cell lysates (in vitro); endogenous in cells; host or cells: MDA-MB-231 soluble lysate
In short: as §5

[2] = biological target: T4, TPMT Thiopurine S-methyltransferase (Homo sapiens, UniProt P51580); conditions: for isoTOP-ABPP ratio (R) at liganded lysine P51580_K32: 50 uM, in vitro, sol, 231; for isoTOP-ABPP ratio, lysine P51580_K32: 50 uM_231_sol_in vitro
T4 construct: isoTOP-ABPP experiments performed in cell lysates (in vitro); endogenous in cells; host or cells: soluble proteome of human cancer cell lines (MDA-MB-231; Ramos and Jurkat also prepared)
T4 sequence (P51580 1-245): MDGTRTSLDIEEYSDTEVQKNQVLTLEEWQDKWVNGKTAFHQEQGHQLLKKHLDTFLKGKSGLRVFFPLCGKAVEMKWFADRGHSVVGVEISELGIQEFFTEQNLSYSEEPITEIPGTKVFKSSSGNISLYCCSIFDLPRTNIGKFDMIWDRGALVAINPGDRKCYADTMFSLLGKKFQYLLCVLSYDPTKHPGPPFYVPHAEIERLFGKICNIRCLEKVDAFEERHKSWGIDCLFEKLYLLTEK
Experimental: as §1, §2, §3, §4

Row | SMILES | isoTOP-ABPP ratio (R) at liganded lysine P36551_K404 [1] | isoTOP-ABPP ratio (R) at liganded lysine Q96C01_K99 (FAM136A Protein FAM136A) | isoTOP-ABPP ratio (R) at liganded lysine P02766_K35 (TTR Transthyretin) | isoTOP-ABPP ratio (R) at liganded lysine P51580_K32 [2] | isoTOP-ABPP ratio, lysine P36551_K404 [1] | isoTOP-ABPP ratio, lysine Q96C01_K99 (FAM136A Protein FAM136A) | isoTOP-ABPP ratio, lysine P02766_K35 (TTR Transthyretin) | isoTOP-ABPP ratio, lysine P51580_K32 [2]
1 | O=C(CCc1coc2cc(F)ccc2c1=O)Oc1ccc([N+](=O)[O-])cc1[N+](=O)[O-] [fragment 36, 2,4-Dinitrophenyl 3-(7-fluoro-4-oxo-4H-chromen-3-yl)propanoate] | 1.0 | 0.8 | 2.4 | 3.4 |  |  |  | 
2 | O=C(Oc1ccc([N+](=O)[O-])cc1[N+](=O)[O-])c1ccc(Oc2ccccc2)cc1 [fragment 39, 2,4-Dinitrophenyl 4-phenoxybenzoate] | 1.0 | 0.8 | 2.2 | 1.0 |  |  |  | 
3 | CC(C)(C)OC(=O)NCCCC(=O)Oc1ccc([N+](=O)[O-])cc1[N+](=O)[O-] [fragment 41, 2,4-Dinitrophenyl 4-((tert-butoxycarbonyl)amino)butanoate] | 1.0 | 0.9 | 3.4 | 1.5 |  |  |  | 
4 | O=C(Oc1ccc([N+](=O)[O-])cc1[N+](=O)[O-])C(c1ccccc1)(c1ccccc1)c1ccccc1 [fragment 42, 2,4-Dinitrophenyl 2,2,2-triphenylacetate] | 1.0 | 0.9 | 1.0 | 0.9 |  |  |  | 
5 | O=C(CCc1ccc2c(c1)OCO2)Oc1ccc([N+](=O)[O-])cc1[N+](=O)[O-] [fragment 45, 2,4-Dinitrophenyl 3-(benzo[d][1,3]dioxol-5-yl)propanoate] |  |  |  |  | 1.2 | 1.0 | 2.5 | 2.3
6 | O=C(ON1C(=O)CCC1=O)c1cc(C(F)(F)F)cc(C(F)(F)F)c1 [fragment 46, 3,5-Bis(trifluoromethyl)benzoic acid NHS ester] |  |  |  |  | 1.0 | 0.6 | 2.3 | 20.0
7 | O=C(Oc1c(F)c(F)cc(F)c1F)c1cc(C(F)(F)F)cc(C(F)(F)F)c1 [fragment 48, 2,3,5,6-Tetrafluorophenyl 3,5-bis(trifluoromethyl)benzoate] |  |  |  |  | 1.0 | 5.5 |  | 4.4
